Test results: ChEMBL document CHEMBL3272229, “Molecular properties of the adrenergic alpha receptor. 2. Optimum covalent inhibition by two different prototypes of polyamine disulfides” (J Med Chem, 1978)
The source made the active and inactive calls. The calls are words filed in the database; no cut-off is given here.

Experiments:
[1] = molecular target: T1, Adrenergic receptor alpha (Rattus norvegicus) (UniProt P15823+P23944+P43140+P22086+P19328+P22909); assay: Irreversible inhibition of alpha adrenergic receptor in rat vas deferens assessed as inhibition of NE-induced contractions at 2 x 10' -5 M after 30 mins relative to N1,N1'-(2,2'-disulfanediylbis(ethane-2,1-diyl))dioctane-1,8-diamine tetrahydrochloride; assay type: tissue-based
[2] = molecular target: T1, Adrenergic receptor alpha (Rattus norvegicus); assay: Irreversible inhibition of alpha adrenergic receptor in rat vas deferens assessed as inhibition of NE-induced contractions at 2 x 10' -5 M after 30 mins relative to [N,N'-bis(o-methoxybenzylamino-n-hexyl)cystamine; assay type: tissue-based
Cavia porcellus [3] = organism: Cavia porcellus; assay: Effect on muscarinic receptor in guinea pig atrium assessed as reduction in carbachol-mediated ionotropic/chronotropic potency at 0.17 uM after 30 to 60 mins; assay type: tissue-based; parameters: scale not given: the % may be the effect or the level left; settings: Cardiac atrium
Cavia porcellus [4] = organism: Cavia porcellus; assay: Effect on muscarinic receptor in guinea pig atrium assessed as reduction in carbachol-mediated ionotropic/chronotropic potency at 10 uM after 17 mins; assay type: tissue-based; settings: Cardiac atrium
[5] = molecular target: T1, Adrenergic receptor alpha (Rattus norvegicus); assay: Irreversible inhibition of alpha adrenergic receptor in rat vas deferens assessed as inhibition of NE-induced contractions at <20 uM after 30 mins; assay type: tissue-based
Cavia porcellus [6] = organism: Cavia porcellus; assay: Effect on muscarinic acetylcholine receptor in guinea pig ileum assessed as reduction in acetylcholine-induced contractile response at 7 uM after 20 to 40 mins; assay type: tissue-based; parameters: scale not given: the % may be the effect or the level left
Oryctolagus cuniculus [7] = organism: Oryctolagus cuniculus; assay: Irreversible inhibition of alpha adrenergic receptor in rabbit aortic strip assessed as inhibition of NE-induced contractions at 0.3 uM after 90 mins
Cavia porcellus [8] = organism: Cavia porcellus; assay: Effect on muscarinic receptor in guinea pig atrium assessed as reduction in carbachol-mediated ionotropic/chronotropic potency at 30 uM after 26 mins; assay type: tissue-based; settings: Cardiac atrium
Oryctolagus cuniculus [9] = organism: Oryctolagus cuniculus; assay: Effect on beta adrenergic receptor in potassium-contracted rabbit aortic strip assessed as change in isoprenaline-mediated response at 10 uM after 30 mins
Cavia porcellus [10] = organism: Cavia porcellus; assay: Antagonist activity at muscarinic receptor in guinea pig atrium assessed as reduction in butyrylcholine-induced response at 10 to 30 uM; assay type: tissue-based; settings: Cardiac atrium
Cavia porcellus [11] = organism: Cavia porcellus; assay: Effect on muscarinic receptor in guinea pig atrium assessed as reduction in carbachol-mediated ionotropic/chronotropic potency at 0.24 uM after 30 to 60 mins; assay type: tissue-based; parameters: scale not given: the % may be the effect or the level left; settings: Cardiac atrium
Oryctolagus cuniculus [12] = organism: Oryctolagus cuniculus; assay: Effect on 5-HT receptor in potassium-contracted rabbit aortic strip assessed as change in 5-HT-mediated response at 10 uM after 30 mins
Oryctolagus cuniculus [13] = organism: Oryctolagus cuniculus; assay: Irreversible inhibition of alpha adrenergic receptor in rabbit aortic strip assessed as inhibition of NE-induced contractions at 1 to 3 uM after 18 hrs
Oryctolagus cuniculus [14] = organism: Oryctolagus cuniculus; assay: Effect on histamine receptor in potassium-contracted rabbit aortic strip assessed as change in histamine-mediated response at 10 uM after 30 mins
Cavia porcellus [15] = organism: Cavia porcellus; assay: Potentiation of NE-mediated alpha adrenergic receptor activity in guinea pig atrium at 10 to 30 uM; assay type: tissue-based; settings: Cardiac atrium
Cavia porcellus [16] = organism: Cavia porcellus; assay: Antagonist activity at alpha adrenergic receptor in guinea pig atrium assessed as reduction in tyramine-mediated ionotropic/chronotropic potency at 10 to 30 uM; assay type: tissue-based; settings: Cardiac atrium
Cavia porcellus [17] = organism: Cavia porcellus; assay: Effect on muscarinic acetylcholine receptor in guinea pig ileum assessed as reduction in acetylcholine-induced contractile response treated at 30 uM for 40 mins measured after 20 mins post washout; assay type: tissue-based
Cavia porcellus [18] = organism: Cavia porcellus; assay: Antagonist activity at alpha adrenergic receptor in guinea pig atrium assessed as inhibition of 30 uM NE-induced contractions treated at 3 uM for 30 mins followed by washout; assay type: tissue-based; settings: Cardiac atrium
Cavia porcellus [19] = organism: Cavia porcellus; assay: Antagonist activity at alpha adrenergic receptor in guinea pig atrium assessed as inhibition of 30 uM NE-induced contractions treated at 0.147 uM; assay type: tissue-based; settings: Cardiac atrium
Cavia porcellus [20] = organism: Cavia porcellus; assay: Antagonist activity at muscarinic receptor in guinea pig atrium assessed as reduction in butyrylcholine-induced response; assay type: tissue-based; settings: Cardiac atrium
Cavia porcellus [21] = organism: Cavia porcellus; assay: Antagonist activity at alpha adrenergic receptor in guinea pig atrium assessed as inhibition of 300 uM NE-induced contractions treated at 0.147 uM; assay type: tissue-based; settings: Cardiac atrium
Cavia porcellus [22] = organism: Cavia porcellus; assay: Antagonist activity at alpha adrenergic receptor in guinea pig atrium assessed as reduction in tyramine-mediated ionotropic/chronotropic potency; assay type: tissue-based; settings: Cardiac atrium
Cavia porcellus [23] = organism: Cavia porcellus; assay: Potentiation of NE-mediated alpha adrenergic receptor activity in guinea pig atrium; assay type: tissue-based; settings: Cardiac atrium

SMILES | inhibition [1] [%] | inhibition [2] [%] | further results
Clc1cccc(Cl)c1CNCCCCCCCNCCSSCCNCCCCCCCNCc1c(Cl)cccc1Cl | 39 | 39 | –
COc1cc(CNCCCCCCNCCSSCCNCCCCCCNCc2cc(OC)cc(OC)c2)cc(OC)c1 | 41 | 41 | –
NCCCCCCNCCSSCCNCCCCCCN | 27 | 27 | –
Clc1cccc(Cl)c1CNCCCCCCNCCSSCCNCCCCCCNCc1c(Cl)cccc1Cl | 40 | 40 | –
CN(CCCCCCCCN)CCSSCCN(C)CCCCCCCCN | 90 | 90 | –
NCCCCCCCCCNCCSSCCNCCCCCCCCCN | 92 | 92 | –
COc1ccccc1CNCCCCCCNCCCCCCNCCCCCCNCc1ccccc1OC | – | – | Activity (Cavia porcellus [3]): 50%; Activity (Cavia porcellus [4]): inactive
NCCCCCCCNCCSSCCNCCCCCCCN | 63 | 63 | –
COc1ccc(CNCCCCCCNCCSSCCNCCCCCCNCc2ccc(OC)c(OC)c2)cc1OC | 24 | 24 | –
NCCCCCNCCSSCCNCCCCCN | 10 | 10 | –
NCCCCCCCCCCNCCSSCCNCCCCCCCCCCN | 56 | 56 | –
COc1ccc(CNCCCCCCNCCSSCCNCCCCCCNCc2ccc(OC)cc2)cc1 | 81 | 81 | –
NCCCCCCCCNCCSSCCNCCCCCCCCN | – | 100 | inhibition [5]: Active
CC(COc1ccccc1)N(CCCl)Cc1ccccc1 (stereo not drawn) | – | – | inhibition (Cavia porcellus [19]): Active; inhibition (Cavia porcellus [20]): Active; inhibition (Cavia porcellus [21]): Active; inhibition (Cavia porcellus [22]): Active; Activity (Cavia porcellus [23]): Active
NCCCCCCCCCCCCNCCSSCCNCCCCCCCCCCCCN | 24 | 24 | –
Oc1ccc(CNCCCCCCNCCSSCCNCCCCCCNCc2ccc(O)c(O)c2)cc1O | 98 | 98 | –

More lines, main results first:

inhibition [1] [%] | inhibition [2] [%] | SMILES | further results
90 | 90 | c1ccc(CNCCCCCCNCCSSCCNCCCCCCNCc2ccccc2)cc1 | –
71 | 71 | COc1ccccc1CNCCCCCCCNCCSSCCNCCCCCCCNCc1ccccc1OC | –
44 | 44 | Clc1ccccc1CNCCCCCCNCCSSCCNCCCCCCNCc1ccccc1Cl | –
76 | 76 | COc1ccc(OC)c(CNCCCCCCNCCSSCCNCCCCCCNCc2cc(OC)ccc2OC)c1 | –
36 | 36 | Clc1ccccc1CNCCCCCCCNCCSSCCNCCCCCCCNCc1ccccc1Cl | –
72 | 72 | COc1cccc(CNCCCCCCNCCSSCCNCCCCCCNCc2cccc(OC)c2)c1 | –
48 | 48 | COc1ccccc1CNCCCCCCN(C)CCSSCCN(C)CCCCCCNCc1ccccc1OC | –
69 | 69 | Cc1ccccc1CNCCCCCCNCCSSCCNCCCCCCNCc1ccccc1C | –
26 | 26 | COc1cccc(CNCCCCCCNCCSSCCNCCCCCCNCc2cccc(OC)c2OC)c1OC | –
56 | 56 | Cc1ccccc1CNCCCCCCCNCCSSCCNCCCCCCCNCc1ccccc1C | –
59 | 59 | COc1ccccc1CNCCCCCNCCSSCCNCCCCCNCc1ccccc1OC | –
81 | 81 | CCOc1ccccc1CNCCCCCCNCCSSCCNCCCCCCNCc1ccccc1OCC | –
49 | 49 | Cc1ccccc1CNCCCCCCCCNCCSSCCNCCCCCCCCNCc1ccccc1C | –
58 | 58 | c1ccc(CNCCCCCCCNCCSSCCNCCCCCCCNCc2ccccc2)cc1 | –
71 | 71 | C=CCOc1ccccc1CNCCCCCCNCCSSCCNCCCCCCNCc1ccccc1OCC=C | –
41 | 41 | COc1ccccc1CNCCCCCCCCNCCSSCCNCCCCCCCCNCc1ccccc1OC | –
100 | – | COc1ccccc1CNCCCCCCNCCSSCCNCCCCCCNCc1ccccc1OC | Activity (Cavia porcellus [6]): 50%; inhibition (Oryctolagus cuniculus [7]): Active; Activity (Cavia porcellus [8]): inactive; Activity (Oryctolagus cuniculus [9]): inactive; inhibition (Cavia porcellus [10]): inactive; Activity (Cavia porcellus [11]): 50%; Activity (Oryctolagus cuniculus [12]): inactive; inhibition (Oryctolagus cuniculus [13]): Active; Activity (Oryctolagus cuniculus [14]): inactive; Activity (Cavia porcellus [15]): inactive; inhibition (Cavia porcellus [16]): inactive; Activity (Cavia porcellus [17]): inactive; inhibition (Cavia porcellus [18]): inactive
26 | 26 | COc1ccc(CNCCCCCCNCCSSCCNCCCCCCNCc2ccc(OC)cc2OC)c(OC)c1 | –
